In patent publication US10316050B2, “PT (IV) complexes containing 4,4′-disubstituted-2,2′-bipyridyl and their use in cancer therapy” (THE BOARD OF REGENTS OF THE NEVADA SYSTEM OF HIGHER …, priority 2014, dated 2019):
Like-named read-outs stand apart in the source and are kept apart here.

Tests used:
Assay type in all cases: cell-based, human
[1] = system: T-47D breast cancer cells; experiment: MTS cell viability assay, T-47D
Method: (§1) Human breast (HCC38, MCF-7, MDA-MB-231, SK-BR-3, T-47D, and ZR-75-1), lung (A549 and H520), and prostate (DU145 and PC-3) cancer cell lines were obtained from American Culture Type Collection (ATCC). The HCC38, MCF-7, MDA-MB-231, SK-BR-3, T-47D, ZR-75-1, and A549 cells were grown in MEM supplemented with 10% FBS, 25 mM HEPES buffer (pH 7.4), penicillin (100 U/mL), and streptomycin (100 μg/mL). The H520, DU145, and PC-3 cell lines were grown in RPMI-1640 supplemented with 10% FBS, 25 mM HEPES buffer (pH 7.4), penicillin (100 U/mL), and streptomycin (100 μg/mL). All cell lines were maintained at 37° C. in a humidified, 5% CO2 atmosphere.
(§2) Cells were cultured at a density of 2-3.5×10^3 cells per well in flat bottomed 96-well plates in 100 μL of complete growth medium and incubated for 2 days to reach ˜50% confluence. The cells were then treated with solvent or the appropriate drugs (CDDP stock was dissolved in 0.15 M NaCl, carboplatin stock was dissolved in 5% glucose, synthesized Pt(IV) complexes were dissolved in DMSO) for 1 hour, washed three times with 100 μL PBS, and incubated in 100 μL of fresh medium. After 2 days, the medium was replaced with 120 μL of medium containing CellTiter 96® Aqueous One Solution Reagent (MTS reagent) (Promega, Madison, Wis.). The cells were incubated at 37° C. for 4 hours and the cell viability was determined by measuring the absorbance at 490 nm using a Tecan Infinite M1000 microplate reader. The 48 h treatment was done in a similar manner, except the cells were not washed after treatment and the MTS reagent was immediately added. Viability of treated groups was calculated as a percent of control and graphed with GraphPad Prism.
(§3) The anti-proliferative activities of Pt(IV) complexes were determined in two lung (A549 and H520), two prostate (DU145 and PC-3), and six breast (HCC38, MCF-7, MDA-MB-231, SK-BR-3, T-47D, and ZR-75-1) cancer cell lines. The cells were treated with increasing concentrations of cisplatin (CDDP), carboplatin, or the Pt(IV) complexes for 1 or 48 hours, and the viability was measured using an MTS colorimetric cell proliferation assay. Graphs of the results are shown for DU145 (FIG. 8A), PC-3 (FIG. 8B), SK-BR-3 (FIG. 8C), ZR-75-1 (FIG. 8D), A549 (FIG. 8E), and MCF-7 (FIG. 8F).

[2] = system: MCF-7 breast cancer cells; experiment: MTS cell viability assay, MCF-7; settings: for EC50: read-out: EC50 (effective concentration that resulted in 50% cell viability)
Method: as §1, §2, §3

[3] = system: ZR-75-1 breast cancer cells; experiment: MTS cell viability assay, ZR-75-1; settings: read-out: EC50 (effective concentration that resulted in 50% cell viability)
Method: as §1, §2, §3

[4] = system: A549 lung cancer cells; experiment: MTS cell viability assay, A549; settings: for EC50: read-out: EC50 (effective concentration that resulted in 50% cell viability)
Method: as §1, §2, §3

[5] = system: HCC38 breast cancer cells; experiment: MTS cell viability assay, HCC38; settings: read-out: EC50 (effective concentration that resulted in 50% cell viability)
Method: as §1, §2, §3

[6] = system: H520 lung cancer cells; experiment: MTS cell viability assay, H520; settings: read-out: EC50 (effective concentration that resulted in 50% cell viability)
Method: as §1, §2, §3

[7] = system: PC-3 prostate cancer cells; experiment: MTS cell viability assay, PC-3; settings: for EC50: read-out: EC50 (effective concentration that resulted in 50% cell viability); for anti-proliferative activity compared to cisplatin (in words): PC-3, one and 48 hours treatment (FIG. 8I)
Method: as §1, §2, §3
(§4) The anti-proliferative activities of certain Pt(II) complexes were determined in DU145, PC-3, and SK-BR-3 cells. The cells were treated with increasing concentrations of cisplatin (CDDP) or the Pt(II) complexes for 1 or 48 hours, and the viability was measured using an MTS colorimetric cell proliferation assay.

[8] = system: SK-BR-3 breast cancer cells; experiment: MTS cell viability assay, SK-BR-3; settings: for EC50: read-out: EC50 (effective concentration that resulted in 50% cell viability); for anti-proliferative activity compared to cisplatin (in words): SK-BR-3, one and 48 hours treatment (FIG. 8G)
Method: as §1, §2, §3, §4

[9] = system: DU145 prostate cancer cells; settings: for EC50: read-out: EC50 (effective concentration that resulted in 50% cell viability); for anti-proliferative activity compared to cisplatin (in words): DU145, one and 48 hours treatment (FIG. 8H)
Method: as §1, §2, §3, §4

[10] = system: MDA-MB-231 breast cancer cells; experiment: MTS cell viability assay, MDA-MB-231; settings: read-out: EC50 (effective concentration that resulted in 50% cell viability)
Method: as §1, §2, §3

[11] = 1 h treatment, Table 2, read-out: EC50 (effective concentration that resulted in 50% cell viability)
[12] = 48 h treatment, Table 4, read-out: EC50 (effective concentration that resulted in 50% cell viability)
[13] = ZR-75-1, 1 h treatment, Table 2
[14] = ZR-75-1, 48 h treatment, Table 4
[15] = SK-BR-3, 1 h treatment, Table 2
[16] = SK-BR-3, 48 h treatment, Table 4
[17] = MDA-MB-231, 1 h treatment, Table 2
[18] = MDA-MB-231, 48 h treatment, Table 4
[19] = DU145, 1 hour treatment (FIG. 8A, top), up to 1 mM carboplatin, 100 μM Pt(IV)-1C, 50 μM Pt(IV)-2C

CCCCCOc1ccnc(-c2cc(OCCCCC)ccn2)c1.[Cl][Pt][Cl] [Pt(II)-5C]
EC50 [1, 11]: 9 ± 3 µM | EC50 [1, 12]: 3 ± 1 µM | EC50 ([2]; MCF-7, 1 h treatment, Table 2): 21 ± 5 µM | EC50 ([2]; MCF-7, 48 h treatment, Table 4): 15 ± 7 µM | EC50 [3, 13]: 8 ± 3 µM | EC50 [3, 14]: 6.6 ± 0.7 µM | EC50 ([4]; A549, 1 h treatment, Table 2): 18 ± 1 µM | EC50 ([4]; A549, 48 h treatment, Table 4): 16.5 ± 0.5 µM | EC50 ([5]; HCC38, 1 h treatment, Table 2): 13 ± 5 µM | EC50 ([5]; HCC38, 48 h treatment, Table 4): 10 ± 2 µM | EC50 ([6]; H520, 1 h treatment, Table 2): 23 ± 5 µM | EC50 ([6]; H520, 48 h treatment, Table 4): 17 ± 3 µM | EC50 ([7]; PC-3, 1 h treatment, Table 2): 7 ± 1 µM | EC50 ([7]; PC-3, 48 h treatment, Table 4): 7.3 ± 0.7 µM | EC50 [8, 15]: 2.8 ± 0.8 µM | EC50 [8, 16]: 2.4 ± 0.4 µM | EC50 ([9]; DU145, 1 h treatment, Table 2): 8 ± 2 µM | EC50 ([9]; DU145, 48 h treatment, Table 4): 6 ± 0.7 µM | EC50 [10, 17]: 4 ± 2 µM | EC50 [10, 18]: 4.1 ± 0.2 µM

CCOC(=O)c1ccnc(-c2cc(C(=O)OCC)ccn2)c1.[Cl][Pt][Cl] [Pt(II)-COOC2]
anti-proliferative activity compared to cisplatin (in words) [7]: generally more effective than cisplatin | anti-proliferative activity compared to cisplatin (in words) [8]: generally more effective than cisplatin | anti-proliferative activity compared to cisplatin (in words) [9]: generally more effective than cisplatin

[Pt(IV)Cl2(OAc)2(4,4′-dimethoxy-2,2′-bipyridine)] [Pt(IV)-1C]
EC50 ([1]; 1 h treatment, Table 3, read-out: EC50 (effective concentration that resulted in 50% cell viability)): > 100 µM | EC50 ([1]; 48 h, Table 5, read-out: EC50 (effective concentration that resulted in 50% cell viability)): 32 ± 0.5 µM | EC50 ([2]; MCF-7, 1 h treatment, Table 3): > 100 µM | EC50 ([2]; MCF-7, 48 h, Table 5): > 100 µM | effect on cell viability (in words) ([2]; MCF-7, 48 hour treatment (FIG. 8F)): had no effect | EC50 ([3]; ZR-75-1, 1 h treatment, Table 3): > 100 µM | EC50 ([3]; ZR-75-1, 48 h, Table 5): > 100 µM | EC50 ([4]; A549, 1 h treatment, Table 3): > 100 µM | EC50 ([4]; A549, 48 h, Table 5): > 100 µM | effect on cell viability (in words) ([4]; A549, 48 hour treatment (FIG. 8E)): had no effect | EC50 ([5]; HCC38, 1 h treatment, Table 3): > 100 µM | EC50 ([5]; HCC38, 48 h, Table 5): > 100 µM | EC50 ([6]; H520, 1 h treatment, Table 3): > 100 µM | EC50 ([6]; H520, 48 h, Table 5): > 100 µM | EC50 ([7]; PC-3, 1 h treatment, Table 3): > 100 µM | EC50 ([7]; PC-3, 48 h, Table 5): > 100 µM | EC50 ([8]; SK-BR-3, 1 h treatment, Table 3): > 100 µM | EC50 ([8]; SK-BR-3, 48 h, Table 5): 80 ± 20 µM | effect on cell viability (in words) [9, 19]: did not have any effects | EC50 ([9]; DU145, 1 h treatment, Table 3): > 100 µM | EC50 ([9]; DU145, 48 h, Table 5): 80 ± 20 µM | effect on cell viability (in words) ([9]; DU145, 48 hours treatment (FIG. 8A, bottom)): more effective than carboplatin | EC50 ([10]; MDA-MB-231, 1 h treatment, Table 3): > 100 µM | EC50 ([10]; MDA-MB-231, 48 h, Table 5): > 100 µM

CCCOc1ccnc(-c2cc(OCCC)ccn2)c1.[Cl][Pt][Cl] [Pt(II)-3C]
EC50 [1, 11]: 2.4 ± 0.1 µM | EC50 [1, 12]: 1.9 ± 0.1 µM | EC50 ([2]; MCF-7, 1 h treatment, Table 2): 100 µM | EC50 ([2]; MCF-7, 48 h treatment, Table 4): 19 ± 4 µM | EC50 [3, 13]: 8.9 ± 0.4 µM | EC50 [3, 14]: 5 ± 1 µM | EC50 ([4]; A549, 1 h treatment, Table 2): 48 ± 3 µM | EC50 ([4]; A549, 48 h treatment, Table 4): 17 ± 1 µM | EC50 ([5]; HCC38, 1 h treatment, Table 2): 3 ± 2 µM | EC50 ([5]; HCC38, 48 h treatment, Table 4): 4.7 ± 0.5 µM | EC50 ([6]; H520, 1 h treatment, Table 2): 40 ± 20 µM | EC50 ([6]; H520, 48 h treatment, Table 4): 13 ± 5 µM | EC50 ([7]; PC-3, 1 h treatment, Table 2): 5 ± 1 µM | EC50 ([7]; PC-3, 48 h treatment, Table 4): 5.1 ± 0.8 µM | EC50 [8, 15]: 1.81 ± 0.03 µM | EC50 [8, 16]: 1.73 ± 0.01 µM | EC50 ([9]; DU145, 1 h treatment, Table 2): 6 ± 1 µM | EC50 ([9]; DU145, 48 h treatment, Table 4): 4 ± 2 µM | EC50 [10, 17]: 4 ± 2 µM | EC50 [10, 18]: 2.2 ± 0.1 µM

CCCCCCCCOC(=O)c1ccnc(-c2cc(C(=O)OCCCCCCCC)ccn2)c1.[Cl][Pt][Cl] [Pt(II)-COOC8]
anti-proliferative activity compared to cisplatin (in words) [7]: generally more effective than cisplatin | anti-proliferative activity compared to cisplatin (in words) [8]: generally more effective than cisplatin | anti-proliferative activity compared to cisplatin (in words) [9]: generally more effective than cisplatin

COC(=O)c1ccnc(-c2cc(C(=O)OC)ccn2)c1.[Cl][Pt][Cl] [Pt(II)-COOC1]
anti-proliferative activity compared to cisplatin (in words) [7]: generally more effective than cisplatin | anti-proliferative activity compared to cisplatin (in words) [8]: generally more effective than cisplatin | anti-proliferative activity compared to cisplatin (in words) [9]: generally more effective than cisplatin

CCOCCOCCOC(=O)c1ccnc(-c2cc(C(=O)OCCOCCOCC)ccn2)c1.[Cl][Pt][Cl] [Pt(II)-COO(C2O)2C2]
anti-proliferative activity compared to cisplatin (in words) [7]: not as effective as cisplatin | reduction in cell viability, one hour versus 48 hours treatment ([8]; SK-BR-3 (FIG. 8G)): greater reduction in cell viability than when they were treated for 48 hours | anti-proliferative activity compared to cisplatin (in words) [8]: not as effective as cisplatin | anti-proliferative activity compared to cisplatin (in words) [9]: not as effective as cisplatin

N.N.O=C([O-])C1(C(=O)[O-])CCC1.[Pt+2] [Carboplatin, carboplatin, reference compound]
EC50 ([2]; MCF-7, 1 h treatment, Table 2): > 1000 µM | EC50 ([2]; MCF-7, 1 h treatment, Table 3): > 1000 µM | EC50 ([2]; MCF-7, 48 h, Table 5): 800 ± 100 µM | EC50 ([2]; MCF-7, 48 h treatment, Table 4): 800 ± 100 µM | EC50 ([4]; A549, 1 h treatment, Table 2): > 1000 µM | EC50 ([4]; A549, 1 h treatment, Table 3): > 1000 µM | EC50 ([4]; A549, 48 h, Table 5): 300 ± 30 µM | EC50 ([4]; A549, 48 h treatment, Table 4): 300 ± 30 µM | effect on cell viability (in words) [9, 19]: no effect | EC50 ([9]; DU145, 1 h treatment, Table 2): > 1000 µM | EC50 ([9]; DU145, 1 h treatment, Table 3): > 1000 µM | EC50 ([9]; DU145, 48 h, Table 5): 400 ± 100 µM | EC50 ([9]; DU145, 48 h treatment, Table 4): 400 ± 100 µM
